Key:
[1] = test system: TNF-α; assay: In vitro measurement of TNF-α production in LPS-stimulated human PBMC (ELISA); assay type: cell-based; conditions: 100 nM compound, LPS 1 μg/mL, 18 h, NA: Not active
Method: Biological Activity In Vitro Measurement of Tumor Necrosis Factor Alpha (TNF-α):
This assay determines the effect of test compounds on the production of TNF-α in human Peripheral Blood Mononuclear Cells (PBMC). Compounds were tested for their ability to inhibit the activity of TNF α in human PBMC. PBMC were isolated from blood (of healthy volunteers) using BD Vacutainer CPT™ (Cell preparation tube, BD Bio Science) and suspended in RPMI (Rosewell park memorial institute) medium (Physiol. Res. 2003, 52, 593-598). The test compounds were pre-incubated with PBMC (0.5 million/incubation well) for 15 minutes at 37° C. and then stimulated with Lipopolysaccharide (Escherichia coli: B4; 1 μg/mL) for 18 h at 37° C. in 5% CO2. The levels of TNF-α in the cell culture medium were estimated using enzyme-linked immunosorbent assay performed in a 96 well format as per the procedure of the manufacturer (Cayman Chemical, Ann Arbor, USA).

[2] = test system: LPS induced neutrophilia; assay: LPS induced neutrophilia model for asthma and COPD; assay type: in vivo, Male Sprague Dawley rats; conditions: rats, BAL 6 h after LPS exposure
Method: LPS Induced Neutrophilia Model for Asthma and COPD:
LPS induced neutrophilia in Sprague Dawley rats was performed using the protocol described in Pulm Pharmacol & Ther 17,133-140, 2004. Male Sprague. Dawley rats were acclimatized to laboratory conditions five to seven days prior to the start of the experiment. They were randomly distributed to various groups based on body weight. Except normal group all the animals were exposed to LPS 100 μg/ml for 40 minutes. The rats were dosed with the test compound suspended in the vehicle containing 0.25% carboxymethylcellulose before half an hour of LPS exposure. BAL was performed 6 h after LPS exposure, total cell count and DLC was done and compared with control and the standard drug.

[3] = target: human PDE4B enzyme (PDE4B2) (Homo sapiens, UniProt Q07343); assay: Phosphodiesterase 4 screening assay (SPA, [3H]-cAMP); assay type: biochemical; conditions: 100 nM compound; 0.5 μM cAMP
Sequence of human PDE4B enzyme (PDE4B2) (Q07343 1-564 isoform Q07343-2): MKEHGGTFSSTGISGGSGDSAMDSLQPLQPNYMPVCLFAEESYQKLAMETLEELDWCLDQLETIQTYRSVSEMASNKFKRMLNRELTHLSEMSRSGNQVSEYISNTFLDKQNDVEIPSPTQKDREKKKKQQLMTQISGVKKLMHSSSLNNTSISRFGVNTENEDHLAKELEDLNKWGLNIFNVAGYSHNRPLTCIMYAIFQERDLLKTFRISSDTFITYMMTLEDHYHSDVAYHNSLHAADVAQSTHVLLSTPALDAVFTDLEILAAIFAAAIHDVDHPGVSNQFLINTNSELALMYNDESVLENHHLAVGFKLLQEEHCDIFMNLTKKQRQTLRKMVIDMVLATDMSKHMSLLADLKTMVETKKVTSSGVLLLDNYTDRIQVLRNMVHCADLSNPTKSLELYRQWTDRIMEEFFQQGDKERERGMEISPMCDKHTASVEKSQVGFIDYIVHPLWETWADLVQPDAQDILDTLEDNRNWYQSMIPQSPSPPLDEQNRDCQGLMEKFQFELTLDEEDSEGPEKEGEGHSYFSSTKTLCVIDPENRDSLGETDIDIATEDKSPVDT
Method: Phosphodiesterase 4 Screening Assay:
PDE4 (Phosphodiesterase type IV) enzymes convert cyclic AMP (cAMP) into AMP. The assay is performed to determine the effect of test compounds on the inhibition of purified human PDE4B enzyme.
The assay involves the detection of the Tritiated AMP (product) using SPA beads known as yittrium silicate. The linear AMP bind preferentially to SPA yittrium silicate beads compared to cyclic nucleotides in the presence of zinc sulphate. The binding of the radiolabelled product to the bead brings the isotope into close proximity to allow radiation from the tritium to excite the scintillant within the bead to emit light. The unbound radiolabel is not close enough to allow this energy transfer and the light emitted due to the binding of tritiated AMP is detected as cpm (counts per minute).
PDE Activity (SPA Based Assay Protocol):
PDE4B activity was inhibited by the compounds according to the invention in a modified SPA (scintillation proximity assay) test, supplied by GE Healthcare Life Sciences (see procedural instructions “Phosphodiesterase [^3H]-cAMP SPA enzyme assay, code TRKQ 7090”), carried out in 96-well microtitre plates. The test volume is 100 μL and contains 50 mM Tris buffer (pH 7.4), 8.3 mM Mg^2+, in the presence of inhibitor or test compound, and containing PDE4B2 enzyme (sufficient to ensure that 10-20% of the cAMP is converted, under the said experimental conditions). […] After a pre-incubation of 5 minutes at 37° C., the reaction is started by adding the substrate (cAMP; 0.5 μM cAMP, including about 50,000 cpm of [^3H]-cAMP) and the assays are incubated for a further 10 minutes; after that, they are stopped by adding SPA beads containing 18 mM ZnSO4 (50 μl). After the beads have been sedimented (>30 minutes), the microtitre plates are analyzed in a Microplate luminescence detection device (TopCount* NXT; PerkinElmer Life Sciences). Where, the signal in the absence of enzyme is defined as the background. 100% activity was defined as the signal detected in the presence of enzyme and DMSO with the background subtracted. The corresponding IC50 values of the compounds for the inhibition of PDE4B2 activity are determined from the concentration-effect curves by means of non-linear regression fit of the standard 4-parameter/multiple binding sites equation from a eight- to ten-point titration. (Catherine B. et al. Anal. Biochem., 1999, 275(2), pp. 148-155, David M. E. Biochem. Pharmacol., 1999, 57, pp. 965-973)

[4] = test system: TNF-α; assay: LPS induced sepsis for measurement of TNF-α inhibition in mice; assay type: in vivo, Female Swiss albino mice; conditions: 10 mg/kg oral, 30 min before LPS i.p., serum 90 min after LPS
Method: LPS Induced Sepsis for Measurement of TNF-α Inhibition in Mice:
The LPS induced sepsis model in mice was performed as described by Les sekut et al (J Lab Clin Med 1994; 124, 813-20). Female Swiss albino mice were selected and the body weights were equivalent within each group. The mice were fasted for 20 h with free access to water. The mice were dosed orally with the test compound suspended in vehicle containing 0.5% Tween 80 in 0.25% Carboxy-methylcellulose sodium salt. The control mice were administered the vehicle alone. After 30 minutes of oral dosing, mice were injected with 500 μg of Lipopolysaccharide (Escherichia coli, LPS: B4 from Sigma) in phosphate buffer saline solution into the intraperitoneal cavity of the mice. After 90 minutes of LPS administration mice were bled via retro-orbital sinus puncture. Blood samples were stored overnight at 4° C. Serum samples were collected by centrifuging the samples at 4000 rpm for 15 minutes at 4° C. Immediately the serum samples were analysed for TNF-α levels using commercially available mouse TNF-α ELISA kit (Amersham Biosciences) and assay was performed by the manufacturer instruction.

O=C(NC1CCC(O)CC1)c1csc(-c2ccc(OC(F)F)c3oc4ccccc4c23)n1 (stereo not drawn) [Example 39, 2-((4-Difluoromethoxy)dibenzo[b,d]furan-1-yl)-N-(4-hydroxycyclohexyl)-1,3-thiazole-4-carboxamide]
inhibition at 0.1 µM [1]: 77.7%
LPS induced neutrophilia % inhibition ([2]; Dose 10 mg/kg): 57.98%

CC(=O)Nc1ccc2oc3c(OC(F)F)ccc(-c4nc(C(=O)NC5CCC(O)CC5)cs4)c3c2c1 (stereo not drawn) [Example 38, 2-(8-Acetamido-4-(difluoromethoxy)dibenzo[b,d]furan-1-yl)-N-(4-hydroxycyclohexyl)-1,3-thiazole-4-carboxamide]
inhibition at 0.1 µM [1]: 83.4%
LPS induced neutrophilia % inhibition ([2]; Dose 5 mg/kg): 35.68%

COc1ccc(-c2nc(C(N)=O)cs2)c2c1oc1ccccc12 [Example 25, 2-(4-Methoxydibenzo[b,d]furan-1-yl)-1,3-thiazole-4-carboxamide]
inhibition at 0.1 µM [1]: 35.5%
inhibition at 0.1 µM [3]: 15.4%

CS(=O)(=O)Nc1ccc2oc3c(OC(F)F)ccc(-c4nc(C(=O)N[C@H]5CC[C@H](O)CC5)co4)c3c2c1 [Example 50, 2-(4-(Difluoromethoxy)-8-(methylsulfonamido)dibenzo[b,d]furan-1-yl)-N-(4-hydroxycyclohexyl)-1,3-oxazole-4-carboxamide]
TNF-α Inhibition (%) [4]: 13.15%

CC(=O)Nc1ccc2oc3c(OC(F)F)ccc(-c4nc(C(=O)O)cs4)c3c2c1 [Example 36, 2-[8-(Acetylamino)-4-(difluoromethoxy)dibenzo[b,d]furan-1-yl]-1,3-thiazole-4-carboxylic acid]
inhibition at 0.1 µM [1]: 15.5%

COc1ccc(-c2nc(C(=O)Nc3c(Cl)cncc3Cl)c(C)s2)c2c1oc1ccccc12 [Example 28, N-(3,5-Dichloropyridin-4-yl)-2-(4-methoxydibenzo[b,d]furan-1-yl)-5-methyl-1,3-thiazole-4-carboxamide]
inhibition at 0.1 µM [1]: 0.88%

CCNC(=O)c1nc(-c2ccc(OC)c3oc4ccccc4c23)sc1C [Example 29, N-Ethyl-2-(4-methoxydibenzo[b,d]furan-1-yl]-5-methyl-1,3-thiazole-4-carboxamide]
inhibition at 0.1 µM [1]: 18.4%

COc1ccc(-c2nc(C(=O)NC3CCCC3)c(C)s2)c2c1oc1ccccc12 [Example 26, N-Cyclopentyl-2-(4-methoxydibenzo[b,d]furan-1-yl)-5-methyl-1,3-thiazole-4-carboxamide]
inhibition at 0.1 µM [1]: 21.9%

CS(=O)(=O)Nc1ccc2oc3c(OC(F)F)ccc(-c4nc(C(=O)Nc5c(Cl)cncc5Cl)cs4)c3c2c1 [Example 34]
inhibition at 0.1 µM [1]: 25.1%

CONC(=O)c1csc(-c2ccc(OC(F)F)c3oc4ccccc4c23)n1 [Example 42, 2-((4-Difluoromethoxy)dibenzo[b,d]furan-1-yl)-N-methoxy-1,3-thiazole-4-carboxamide]
inhibition at 0.1 µM [1]: 8.5%

COc1ccc(-c2nc(C(=O)Nc3c(Cl)cncc3Cl)cs2)c2c1oc1ccccc12 [Example 13, N-(3,5-Dichloropyridin-4-yl)-2-(4-methoxydibenzo[b,d]furan-1-yl)-1,3-thiazole-4-carboxamide]
inhibition at 0.1 µM [1]: 26.1%
inhibition at 0.1 µM [3]: 70.3%
TNF-α Inhibition (%) [4]: 37.83%

COc1ccc(-c2nc(CCC(=O)Nc3c(Cl)cncc3Cl)cs2)c2c1oc1ccccc12 [Example 11, N-(3,5-Dichloropyridin-4-yl)-3-(2-(4-methoxydibenzo[b,d]furan-1-yl)-1,3-thiazol-4-yl)propanamide]
inhibition at 0.1 µM [3]: 32.8%
TNF-α Inhibition (%) [4]: 46.70%

COc1ccc(-c2nc(C(=O)NN3CCOCC3)cs2)c2c1oc1ccccc12 [Example 30, 2-(4-Methoxydibenzo[b,d]furan-1-yl)-N-morpholino-1,3-thiazole-4-carboxamide]
inhibition at 0.1 µM [1]: 21.9%

COc1ccc(-c2nc(C(=O)NC3CCC(O)CC3)c(C)s2)c2c1oc1ccccc12 (stereo not drawn) [Example 27, N-(4-Hydroxycyclohexyl)-2-(4-methoxydibenzo[b,d]furan-1-yl)-5-methyl-1,3-thiazole-4-carboxamide]
inhibition at 0.1 µM [1]: 82.7%

COc1ccc(-c2nc(C(=O)NC3CCC(O)CC3)cs2)c2c1oc1ccccc12 (stereo not drawn) [Example 31, N-(4-Hydroxycyclohexyl)-2-(4-methoxydibenzo[b,d]furan-1-yl)-1,3-thiazole-4-carboxamide]
inhibition at 0.1 µM [1]: 63.1%

O=C(Nc1c(Cl)cncc1Cl)c1csc(-c2ccc(OC(F)F)c3oc4ccccc4c23)n1 [Example 14, N-(3,5-dichloropyridin-4-yl)-2-(4-(difluoromethoxy)dibenzo[b,d]furan-1-yl)-1,3-thiazole-4-carboxamide]
inhibition at 0.1 µM [1]: 14.5%
inhibition at 0.1 µM [3]: 42.3%
TNF-α Inhibition (%) [4]: 40.67%

Cc1sc(-c2ccc(OC(F)F)c3oc4ccc(NS(C)(=O)=O)cc4c23)nc1C(=O)NC1CCC(O)CC1 (stereo not drawn) [Example 35, 2-(4-(Difluoromethoxy)-8-(methylsulfonamido)dibenzo[b,d]furan-1-yl)-N-(4-hydroxycyclohexyl)-5-methyl-1,3thiazole-4-carboxamide]
inhibition at 0.1 µM [1]: 61.8%
LPS induced neutrophilia % inhibition ([2]; Dose 10 mg/kg): 19.29%

O=C(NCC(F)(F)F)c1csc(-c2ccc(OC(F)F)c3oc4ccccc4c23)n1 [Example 40, 2-((4-Difluoromethoxy)dibenzo[b,d]furan-1-yl)-N-(2,2,2-trifluoroethyl)-1,3-thiazole-4-carboxamide]
inhibition at 0.1 µM [1]: 26.7%

From US8580795B2, “Heterocyclic compounds as phosphodiesterase inhibitors” (Orchid Chemicals & Pharmaceuticals Limited, priority 2009, dated 2013)
